Here are results for three molecules from publication PMC6208485, “Discovery of the first macrolide antibiotic binding protein in Mycobacterium tuberculosis: a new antibiotic resistance drug target” (Protein & Cell, 2018).

Sequence of MABP-1 (Rv3197) (O53343 entry or part of it): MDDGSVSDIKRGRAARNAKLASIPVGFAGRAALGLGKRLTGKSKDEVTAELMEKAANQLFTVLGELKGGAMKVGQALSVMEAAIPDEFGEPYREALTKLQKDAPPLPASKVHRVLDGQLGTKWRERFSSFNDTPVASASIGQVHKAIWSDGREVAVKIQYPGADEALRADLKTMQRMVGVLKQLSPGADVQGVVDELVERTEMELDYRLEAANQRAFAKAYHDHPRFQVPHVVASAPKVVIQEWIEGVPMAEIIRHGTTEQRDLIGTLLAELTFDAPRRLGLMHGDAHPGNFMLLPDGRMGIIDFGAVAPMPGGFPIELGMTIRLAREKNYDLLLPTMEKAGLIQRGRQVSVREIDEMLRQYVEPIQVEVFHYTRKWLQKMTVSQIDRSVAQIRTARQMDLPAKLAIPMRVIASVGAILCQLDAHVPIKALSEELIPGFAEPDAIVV

The assay addresses MABP-1 (Rv3197) (Mycobacterium tuberculosis, UniProt O53343).
`Nc1ncnc2c1ncn2[C@@H]1O[C@H](COP(=O)(O)OP(=O)(O)O)[C@@H](O)[C@H]1O` [ADP]: the “crystal structure of the complex” value is “crystal structures of MABP-1 in complex with AMPPNP and with ADP, were determined”.

Consider `Nc1ncnc2c1ncn2[C@@H]1O[C@H](COP(=O)(O)OP(=O)(O)NP(=O)(O)O)[C@@H](O)[C@H]1O` [AMPPNP], for which the “crystal structure of the complex” value was “crystal structures of MABP-1 in complex with AMPPNP and with ADP, were determined”.

Take `CC[C@H]1OC(=O)[C@H](C)[C@@H](O[C@H]2C[C@@](C)(OC)[C@@H](O)[C@H](C)O2)[C@H](C)[C@@H](O[C@@H]2O[C@H](C)C[C@H](N(C)C)[C@H]2O)[C@](C)(O)C[C@@H](C)C(=O)[C@H](C)[C@@H](O)[C@]1(C)O` [erythromycin]: the “crystal structure of the complex” value is listed as “The electron density for erythromycin was unequivocal revealing it is located in a shallow pocket”.
